# Source: paper PMC9976286, “Combination of In Silico and In Vitro Screening to Identify Novel Glutamate Carboxypeptidase II Inhibitors” (Journal of Chemical Information and Modeling, 2023)
# Tested on: GCPII
# Test: not given
# Settings: dataset of 54 GCPII ligands compiled from the PDB; read-out: IC50[nM] (54 actives, PDB ID); cited from earlier work
row,SMILES,IC50
1,N[C@@H](Cn1oc(=O)[nH]c1=O)C(=O)O [Compound 2JBK],9500 nM
2,O=C(O)CC[C@H](NC(=O)N[C@@H](CCCCn1cc(COCCOCCNc2ccc([N+](=O)[O-])cc2[N+](=O)[O-])nn1)C(=O)O)C(=O)O [Compound 2XEI],0.54 nM
3,O=C(O)CC[C@H](C[P@@](=O)(O)CCC(=O)O)C(=O)O [Compound 3BHX],0.7 nM
4,N[C@@H](CC[P@](=O)(O)C[C@@H](CCC(=O)O)C(=O)O)C(=O)O [Compound 3BI0],14 nM
5,"CN(Cc1cnc2nc(N)nc(N)c2n1)c1ccc(C(=O)N[C@H](CC[P@@](=O)(O)C[C@@H](CCC(=O)O)C(=O)O)C(=O)O)cc1 [Compound 3BI1, (2S)-2-{[(R)-[(3R)-3-carboxy-3-{[(4-{[(2,4-diaminopteridin-6-yl)methyl](methyl)amino}phenyl)carbonyl]amino}propyl](hydroxy)phosphoryl]methyl}pentanedioic acid]",0.12 nM
6,O=C(O)CC[C@H](NC(=O)N[C@@H](CSCc1ccc(F)cc1)C(=O)O)C(=O)O [Compound 3D7D],14 nM
7,O=C(O)CC[C@H](NC(=O)N[C@@H](Cc1ccc(O)c(I)c1)C(=O)O)C(=O)O [Compound 3D7F],0.5 nM
8,CSC[C@H](NC(=O)N[C@@H](CCC(=O)O)C(=O)O)C(=O)O [Compound 3D7G],17 nM
9,CSCC[C@H](NC(=O)N[C@@H](CCCCNC(=O)c1ccc(I)cc1)C(=O)O)C(=O)O [Compound 3SJF],23 nM
10,O=C(O)CC[C@H](N[P@](=O)(O)OCCC[C@H](NC(=O)CC[C@H](NC(=O)c1ccc(F)cc1)C(=O)O)C(=O)O)C(=O)O [Compound 4LQG],1.3 nM

# Same assay, conditions: dataset of 54 GCPII ligands compiled from the PDB; read-out: Ki[nM] (54 actives, PDB ID); cited from earlier work
row,SMILES,Ki
1,CC(=O)N(CCCC[C@H](NC(=O)N[C@@H](CCC(=O)O)C(=O)O)C(=O)O)Cc1ccc(Br)cc1 [Compound 4NGM],0.0449 nM
2,O=CNCCCC[C@H](NC(=O)N[C@@H](CCC(=O)O)C(=O)O)C(=O)O [Compound 4NGN],0.268 nM
3,O=C(N[C@@H](CCCCNC(=O)c1ccc(I)cc1)C(=O)O)NC1(C(=O)O)CC1 [Compound 4OC0],318 nM

# Same assay, conditions: listed by ChEMBL ID or PDB ID; read-out: GCPII IC50 (Fig. S20, inhibitors with subnanomolar activities); cited from earlier work
row,SMILES,IC50
2,O=C(O)CC[C@H](NP(=O)(O)O)C(=O)O [CHEMBL241779],0.86 nM
3,N[C@@H](CCC(=O)N[C@@H](COP(=O)(O)O[C@@H](CCC(=O)O)C(=O)O)C(=O)O)C(=O)O [CHEMBL1289263],0.55 nM
4,O=C(O)CC[C@H](NP(=O)(O)OC[C@H](NC(=O)CC[C@H](NC(=O)CCCCCNC(=O)c1ccc(-c2c3ccc(=O)cc-3oc3cc(O)ccc23)c(C(=O)O)c1)C(=O)O)C(=O)O)C(=O)O [CHEMBL1921899],0.41 nM
5,O=C(O)CC[C@H](NC(=O)N[C@@H](CCCC(=O)Nc1cccc(F)c1)C(=O)O)C(=O)O [CHEMBL4277729],0.28 nM
6,CN(Cc1ccc(F)cc1)C(=O)CCC[C@H](NC(=O)N[C@@H](CCC(=O)O)C(=O)O)C(=O)O [CHEMBL4283406],0.64 nM
7,O=C(O)CC[C@H](NC(=O)N[C@@H](CCCC(=O)N(CCNC(=O)c1ccc(F)cc1)c1ccccc1)C(=O)O)C(=O)O [CHEMBL4286872],0.15 nM
8,CN(C(=O)CCC[C@H](NC(=O)N[C@@H](CCC(=O)O)C(=O)O)C(=O)O)c1ccc(F)cc1 [CHEMBL4288368],0.2 nM
9,CN(Cc1cccc(F)c1)C(=O)CCC[C@H](NC(=O)N[C@@H](CCC(=O)O)C(=O)O)C(=O)O [CHEMBL4291245],0.46 nM
10,O=C(O)CC[C@H](NC(=O)N[C@@H](CCCC(=O)NCCNC(=O)c1ccc(F)cc1)C(=O)O)C(=O)O [CHEMBL4294773],0.94 nM

# Biological target: T1, Recombinant human GCPII (Homo sapiens, UniProt Q04609)
# T1 construct: made in house
# Test: In vitro GCPII inhibition assay, fluorescence-based, RP-HPLC readout (screening at 20 μM and IC50)
# Assay type: biochemical
# Settings: compound at 20 μM; 100 nM fluorescein-labeled Glu-Glu dipeptide substrate
# Protocol: The inhibitory potency of the selected compounds against GCPII was determined using a fluorescence-based assay developed in-house. Recombinant human GCPII purified as described previously[40],[41] (final concentration 0.02 nM) was preincubated with 20 μM test compound for the screening in 50 mM Tris-HCl, 150 mM NaCl, 0.001% C12E8 at 37 °C for 10 min. The reaction was initiated by the addition of 100 nM Glu-Glu dipeptide labeled with fluorescein (substrate)[42] in a total volume of 50 μL. Following 15 min incubation, the reaction was terminated by the addition of 5 μL of 0.1% TFA in 5% acetonitrile. […] The data were fitted using the GraphPad Prism software, and IC50 values were calculated from the inhibition curves of two independent experiments using a nonlinear analysis protocol.
# T1 sequence (Q04609 whole entry): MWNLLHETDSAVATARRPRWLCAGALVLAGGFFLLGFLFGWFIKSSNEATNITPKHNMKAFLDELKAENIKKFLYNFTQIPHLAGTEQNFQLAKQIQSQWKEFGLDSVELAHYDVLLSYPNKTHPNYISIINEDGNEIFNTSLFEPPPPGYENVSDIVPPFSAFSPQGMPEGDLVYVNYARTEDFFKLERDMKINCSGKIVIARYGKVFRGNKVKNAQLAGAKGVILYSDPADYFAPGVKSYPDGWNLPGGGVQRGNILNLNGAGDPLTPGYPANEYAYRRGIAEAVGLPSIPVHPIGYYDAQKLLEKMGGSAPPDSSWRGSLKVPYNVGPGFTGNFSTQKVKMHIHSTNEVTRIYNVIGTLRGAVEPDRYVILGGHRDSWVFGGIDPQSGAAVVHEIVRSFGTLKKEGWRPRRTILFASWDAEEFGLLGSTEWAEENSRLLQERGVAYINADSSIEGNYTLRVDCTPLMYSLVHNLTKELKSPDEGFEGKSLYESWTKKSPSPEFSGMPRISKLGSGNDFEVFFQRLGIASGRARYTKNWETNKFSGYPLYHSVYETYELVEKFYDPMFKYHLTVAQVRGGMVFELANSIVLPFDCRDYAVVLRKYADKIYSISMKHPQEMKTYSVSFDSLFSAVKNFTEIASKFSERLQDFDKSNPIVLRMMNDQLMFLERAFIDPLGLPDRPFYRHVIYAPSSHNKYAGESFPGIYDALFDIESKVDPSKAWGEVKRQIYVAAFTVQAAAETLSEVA
row,SMILES,Inhibition [%] of GCPII activity
1,CC(C)(CC(=O)Nc1scc(-c2cccs2)c1C(=O)O)CC(=O)Nc1scc(-c2cccs2)c1C(=O)O [Compound 22],38%
2,O=C(O)c1cc(C(=O)O)c(C(=O)O)cc1C(=O)O [Compound 24],33%
3,Nc1cc(N)c(C(=O)O)cc1C(=O)O [Compound 28],29%
4,O=C(O)c1ccc(CN2CC(C(=O)O)CC2=O)cc1 (stereo not shown) [Compound 45],1%

# Same assay, conditions: compound at 20 μM; 100 nM fluorescein-labeled Glu-Glu dipeptide substrate; read-out: Inhibition [%] of GCPII activity
row,SMILES,inhibition at 20 µM
1,O=C(O)CCNC(=O)C(F)(F)C(F)(F)C(=O)NCCC(=O)O [Compound 1],0%
2,O=C(O)c1ccc(NC(=O)c2ccccc2C(=O)O)cc1O [Compound 2],0%
3,Cc1sc(NC(=O)CC(C)(C)CC(=O)Nc2sc(C)c(C)c2C(=O)O)c(C(=O)O)c1C [Compound 3],11%
4,COc1ccc(N(CCC(=O)O)CCC(=O)O)cc1OC [Compound 4],2%
5,O=C(O)CSc1nnnn1-c1ccc(C(=O)O)cc1 [Compound 5],3%
6,Cc1sc(NC(=O)c2cc(C(=O)O)ccc2C(=O)O)c(C#N)c1C [Compound 6],4%
7,O=C(O)CCN(CCC(=O)O)c1ccccc1O [Compound 7],12%
8,COc1ccc([C@H](C)NC(=O)c2cc(C(=O)O)ccc2C(=O)O)cc1 [Compound 8],1%
9,O=C(O)CCC(=O)Nc1cc(C(=O)O)ccc1Br [Compound 9],0%
10,O=C(O)CCCC(=O)Nc1ccc(C(=O)O)cc1 [Compound 10],0%
11,O=C(O)c1cccc(NC(=O)[C@H]2CC=CC[C@H]2C(=O)O)c1 [Compound 11],0%
12,COc1ccc(OC)c(NC(=O)c2ccc(C(=O)O)cc2C(=O)O)c1 [Compound 12],0%
13,COc1ccc(Cl)cc1NC(=O)c1ccc(C(=O)O)cc1C(=O)O [Compound 13],0%
14,O=C(O)c1ccccc1CN[C@@H](Cc1c[nH]c2ccccc12)C(=O)O [Compound 14],0%
15,N#Cc1c(NC(=O)c2ccc(C(=O)O)cc2C(=O)O)sc2c1CCCC2 [Compound 15],13%
16,CCOc1ccc(NC(=O)c2cc(C(=O)O)ccc2C(=O)O)cc1 [Compound 16],0%
17,O=C(O)CN[S@TB17](=O)(=O)c1ccc(C(=O)O)cc1 [Compound 19],0%
18,O=C(O)Cn1c(COCc2nc3ccccc3n2CC(=O)O)nc2ccccc21 [Compound 20],8%
19,O=C(O)CSc1nc2ccccc2n1CC(=O)O [Compound 21],1%
20,CC(C)(CC(=O)Nc1scc(-c2cccs2)c1C(=O)O)CC(=O)Nc1scc(-c2cccs2)c1C(=O)O [Compound 22],> 25%
21,O=C(O)CSc1ncccc1C(=O)O [Compound 23],11%
22,O=C(O)c1cc(C(=O)O)c(C(=O)O)cc1C(=O)O [Compound 24],> 25%

row,SMILES,inhibition at 20 µM
1,O=C(O)CN1CCC(C(=O)O)CC1 [Compound 25],0%
2,CC(C)(CC(=O)Nc1scc(-c2ccccc2)c1C(=O)O)CC(=O)Nc1scc(-c2ccccc2)c1C(=O)O [Compound 26],18%
3,O=C(O)CCN(CCC(=O)O)c1ccc(/C=C/c2ccnc3ccccc23)cc1 [Compound 27],18%
4,Nc1cc(N)c(C(=O)O)cc1C(=O)O [Compound 28],> 25%
5,Cc1cc(-c2ccc(NC(=O)CCC(=O)O)c(C)c2)ccc1NC(=O)CCC(=O)O [Compound 29],0%
6,O=C(NCCCCCCNC(=O)[C@H]1CCCC[C@H]1C(=O)O)[C@H]1CCCC[C@H]1C(=O)O [Compound 30],0%
7,O=C(O)c1ccc(CNCc2ccccc2C(=O)O)cc1 [Compound 31],8%
8,O=C(O)CN[S@TB17](=O)(=O)c1cccc(C(=O)O)c1 [Compound 32],1%
9,O=C(O)CNc1ccc(C(=O)O)cc1 [Compound 33],0%
10,O=C(O)c1ccccc1NC(=O)[C@@H](O)[C@H](O)C(=O)O [Compound 34],2%
11,O=C(O)CCCC(=O)Nc1cccc(C(=O)O)c1 [Compound 35],1%
12,O=C(O)c1ccc(C(=O)NCCc2ccccc2)c(C(=O)O)c1 [Compound 36],3%
13,O=C(O)c1ccc(C(=O)NCc2ccccc2)c(C(=O)O)c1 [Compound 37],1%
14,CC(=O)c1ccc(NC(=O)c2ccc(C(=O)O)cc2C(=O)O)cc1 [Compound 38],0%
15,CCCCc1ccc(NC(=O)c2ccc(C(=O)O)cc2C(=O)O)cc1 [Compound 39],10%
16,O=C(O)c1ccc(C(=O)Nc2cc(Cl)ccc2Cl)c(C(=O)O)c1 [Compound 40],4%
17,O=C(O)c1ccc(C(=O)Nc2ccc(Oc3ccccc3)cc2)c(C(=O)O)c1 [Compound 41],0%
18,COc1ccc([S@TB4](=O)(=O)Oc2ccc(C(=O)O)cc2)cc1 [Compound 42],1%
19,COc1cc(C(=O)O)ccc1O[S@TB17](=O)(=O)c1ccc(F)cc1 [Compound 44],0%
20,Cc1c(C)c(CC(C(=O)O)C(=O)O)c(C)c(C)c1CC(C(=O)O)C(=O)O [Compound 47],24%
21,O=C(/C=C/c1ccccc1)Oc1cc([S@TB3](=O)(=O)O)cc2cc([S@TB3](=O)(=O)O)ccc12 [Compound 48],16%
22,CCCCc1nc(Cl)c(C(=O)O)n1Cc1ccc(-c2ccccc2-c2nnn[nH]2)s1 [Compound 49],15%

# Same assay, conditions: read-out: Inhibition [%] of GCPII activity
row,SMILES,inhibition at 20 µM
1,O=[N+]([O-])c1ccc([S@TB4](=O)(=O)Oc2cccc(O[S@TB17](=O)(=O)c3ccc([N+](=O)[O-])cc3)c2)cc1 [Compound 43],1%
2,O=[N+]([O-])c1ccc([S@TB4](=O)(=O)Oc2ccc(O[S@TB17](=O)(=O)c3ccc([N+](=O)[O-])cc3)c(Br)c2)cc1 [Compound 50],1%
